Consider 9 molecules from paper PMC3038857, “Using Nuclear Receptor Activity to Stratify Hepatocarcinogens” (PLoS ONE, 2011).

Data set [1] concerns the target T1, PXR (NR1I2) (Homo sapiens, UniProt O75469).
T1 sequence (O75469 1-434): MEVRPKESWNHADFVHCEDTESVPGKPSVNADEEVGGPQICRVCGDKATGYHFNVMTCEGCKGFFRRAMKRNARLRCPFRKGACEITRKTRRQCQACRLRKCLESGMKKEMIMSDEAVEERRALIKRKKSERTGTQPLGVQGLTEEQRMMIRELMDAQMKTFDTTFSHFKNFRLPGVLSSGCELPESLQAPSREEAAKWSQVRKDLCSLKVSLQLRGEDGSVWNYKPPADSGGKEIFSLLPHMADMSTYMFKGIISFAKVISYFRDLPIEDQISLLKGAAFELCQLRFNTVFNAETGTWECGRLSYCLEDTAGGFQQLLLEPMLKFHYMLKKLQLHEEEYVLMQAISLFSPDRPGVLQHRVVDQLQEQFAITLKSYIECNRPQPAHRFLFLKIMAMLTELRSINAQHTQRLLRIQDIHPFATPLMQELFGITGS
In words: ATG_PXR_TRANS: Factorial reporter gene assay (HepG2). In kind it is cell-based. Set-up: endogenous in cells; host or cells: HepG2. The conditions noted are these: HepG2. The procedure, abridged:
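HepG2 cells transfected with multiplexed reporter libraries: cis-acting binding-site reporters (CIS) and a one-hybrid nuclear-receptor trans system (TRANS). Chemicals tested at seven concentrations, starting at the maximum tolerated concentration with three-fold serial dilutions.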

The target in data set [2] is T2, PPARg (PPARG) (Homo sapiens, UniProt P37231).
T2 sequence (P37231 1-505): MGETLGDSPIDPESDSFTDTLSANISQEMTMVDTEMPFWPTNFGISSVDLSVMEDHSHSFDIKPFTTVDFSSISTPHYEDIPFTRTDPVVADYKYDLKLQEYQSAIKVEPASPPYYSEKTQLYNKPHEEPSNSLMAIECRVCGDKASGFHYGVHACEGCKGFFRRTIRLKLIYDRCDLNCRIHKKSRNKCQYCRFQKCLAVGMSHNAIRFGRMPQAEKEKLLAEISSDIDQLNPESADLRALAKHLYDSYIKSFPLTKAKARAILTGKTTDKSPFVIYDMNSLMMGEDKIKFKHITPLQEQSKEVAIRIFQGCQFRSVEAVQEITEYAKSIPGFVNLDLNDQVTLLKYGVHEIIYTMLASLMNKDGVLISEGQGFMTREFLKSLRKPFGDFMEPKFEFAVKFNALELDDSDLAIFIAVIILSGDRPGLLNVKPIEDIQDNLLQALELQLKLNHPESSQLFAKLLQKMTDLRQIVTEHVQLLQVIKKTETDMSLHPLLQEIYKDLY
In words: NVS_NR_hPPARg: Human PPARg Fluorescent Ligand (cell-free HTS). Type of data set: binding. The conditions noted are these: scale not given, looks like -log10 of molar active concentration, 0 = no activity. The source says:
(§1) These are a collection of biochemical assays measuring binding constants and enzyme inhibition values. Chemicals were initially screened at a single concentration in duplicate wells at a concentration of 10 [drawing 63] M for cytochrome P-450 assays and 25 [drawing 64] M for all others. […] These assays were run by Caliper Life Sciences (Hanover, MD) under contract to EPA. Short assay descriptions are available at: http://www.caliperls.com/products/contract-research/in-vitro/.
(§2) Cell-free HTS Assays: A collection of biochemical assays measuring binding constants and enzyme inhibition values. […] These assays were run by Caliper Life Sciences (Hanover, MD) under contract to EPA. Short assay descriptions are available at http://www.caliperls.com/products/contract-research/in-vitro/. Values for all endpoints were imported into GeneData Screener (Basel, Switzerland) and normalised to solvent controls from the same plate as the tested compounds and expressed as percent of neutral control. Concentration-response curves were fit in GeneData Screener (Basel, Switzerland) Condeseo module using the Hill equation and AC50 values were determined. […] Detailed description of the methods, data and analysis methods for this dataset are described in a separate publication.

Data set [3] deals with Human ER (ESR1) (Homo sapiens, UniProt P03372). Briefly: NVS_NR_hER: Human ER 3H-Estradiol (cell-free HTS). In kind it is binding. The following applies: scale not given, looks like -log10 of molar active concentration, 0 = no activity.
Source text: as §1, §2

The target of data set [4] is T3, PPARG (peroxisome proliferator-activated receptor gamma) (Homo sapiens, UniProt P37231).
T3 construct: expressed in transfected cells; host or cells: HepG2
T3 sequence (P37231 1-505): T2 sequence (P37231 1-505)
Briefly: ATG_PPARg_TRANS: Factorial reporter gene assay (HepG2). In kind it is cell-based. The conditions noted are these: HepG2. Put shortly:
(§3)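 CIS (PXRE): HepG2 transfected with 48 TF-binding-site MRTU library. TRANS (ERRg, FXR, PPARg): one-hybrid format, extra 25 nuclear-receptor MRTUs. 7 concs, top = MTC, 3-fold serial dilution.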
Background: In a reporter assay the amount or activity of a reporter protein is the signal.

Data set [5] deals with T1, PXR (NR1I2). Briefly: ATG_PXRE_CIS: Factorial reporter gene assay (HepG2). In kind it is cell-based. Details: endogenous in cells; host or cells: HepG2. The conditions noted are these: HepG2. Put shortly: as §3
In data set [6] the target is T2, PPARg (PPARG). In words: NCGC_PPARg_Agonist: GAL4 BLAM Reporter gene assay: PPARg. In kind it is cell-based. Details: expressed in transfected cells; host or cells: HEK293. The conditions noted are these: agonist mode; scale not given, looks like -log10 of molar active concentration; 0 = no activity. The protocol:
These assays measure binding constants and enzyme inhibition values for nuclear receptors. The targets include [drawing 67] , [drawing 68] , [drawing 69] , [drawing 70] , [drawing 71] , [drawing 72] , [drawing 73] , [drawing 74] , [drawing 75] and [drawing 76] . Each of the nuclear receptor targets was measured in agonist mode. Assays were run at the NIH Chemical Genomics Center (Rockville, MD).
Cell-based HTS Assays: These assays measuring binding constants and enzyme inhibition values for nuclear receptors. The targets include AR, ER, FXR, LXR, PPARα, PPARδ, PPARγ, RXRα, RXRβ and PXR. Each of the nuclear receptor targets was measured in both agonist and antagonist mode, but the antagonist data is still undergoing analysis due to possible interference between cytotoxicity and assay activity, so antagonist mode data were not used in the present analysis. Assays were run at the NIH Chemical Genomics Center (Rockville, MD) as part of the Tox21 collaboration. […] The R^2 was required to be ≥0.5. Values where only the highest concentration exceeded 50% activity were excluded to eliminate weak or false positives. Detailed description of the methods, data and analysis methods for this dataset will be presented in a separate publication.

Data set [7] has as its system Rat Liver. The following applies: ref ToxRefDB, cited from earlier work.
Data set [8] concerns Rat Liver. The conditions noted are these: ref ToxRefDB, cited from earlier work. The source holds these as a separate data set.
The test system of data set [9] is Rat Liver. The following applies: ref ToxRefDB, cited from earlier work. This is another data set of the same source.
[10] abbreviates: scale not given, looks like -log10 of molar active concentration, 0 = no activity.
The mark [11] stands for this setting: rat chronic study, liver, preneoplastic lesion, coded 6 / 0, code not explained here.
Setting [12] is: rat chronic study, liver, any lesion, coded 6 / 0, code not explained here.
Setting [13] is: rat chronic study, liver, neoplastic lesion, coded 6 / 0, code not explained here.

Read-outs that look alike come from different tables or passages of the source.

Chain of Human ER (ESR1) (P03372 whole entry): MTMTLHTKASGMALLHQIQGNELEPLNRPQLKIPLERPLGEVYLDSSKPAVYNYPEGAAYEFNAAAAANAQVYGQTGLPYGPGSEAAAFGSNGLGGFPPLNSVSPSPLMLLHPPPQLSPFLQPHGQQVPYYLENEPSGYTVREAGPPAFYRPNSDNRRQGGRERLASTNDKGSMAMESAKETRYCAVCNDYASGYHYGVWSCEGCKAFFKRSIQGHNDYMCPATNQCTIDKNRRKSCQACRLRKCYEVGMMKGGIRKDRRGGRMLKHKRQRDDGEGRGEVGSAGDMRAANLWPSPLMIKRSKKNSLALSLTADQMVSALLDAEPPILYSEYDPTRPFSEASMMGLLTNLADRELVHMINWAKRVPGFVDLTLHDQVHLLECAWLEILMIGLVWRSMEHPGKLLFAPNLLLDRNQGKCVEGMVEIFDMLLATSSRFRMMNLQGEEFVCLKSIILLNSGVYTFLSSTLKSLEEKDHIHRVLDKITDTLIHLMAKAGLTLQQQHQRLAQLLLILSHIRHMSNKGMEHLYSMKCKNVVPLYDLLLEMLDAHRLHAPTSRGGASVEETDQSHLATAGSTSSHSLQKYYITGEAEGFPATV

Regarding `COC(=O)c1ccccc1CS(=O)(=O)NC(=O)Nc1nc(OC)cc(OC)n1` [r33], the ATG_PXR_TRANS in [1] (setting [10]) is on record as 0. For the same molecule, in data set [2], the NVS_NR_hPPARg is 0. Also, in [3], the NVS_NR_hER is 0. Moreover, the ATG_PPARg_TRANS in data set [4] (setting [10]) worked out at 0. For the same molecule, in data set [5] (setting [10]), the ATG_PXRE_CIS is 4.337. The molecule further had an NCGC_PPARg_Agonist in data set [6] of 0.

Regarding `CCC(C)Nc1c([N+](=O)[O-])cc(C(C)(C)C)cc1[N+](=O)[O-]` (stereo not shown) [r48], the ATG_PXR_TRANS in [1] (setting [10]) stood at 5.114. The same molecule yielded an NVS_NR_hPPARg in [2] of 0. Further, the NVS_NR_hER in data set [3] is 0. The ATG_PPARg_TRANS in data set [4] (setting [10]) is reported as 4.523. The ATG_PXRE_CIS in [5] (setting [10]) came to 5.143. The same molecule registered an NCGC_PPARg_Agonist in data set [6] of 0.

`O=C1C2CC=CCC2C(=O)N1SC(Cl)(Cl)Cl` (stereo not shown) [r51] displayed an ATG_PXR_TRANS in [1] (setting [10]) of 0. The NVS_NR_hPPARg in data set [2] is 0. In addition, in data set [3], the NVS_NR_hER came out at 0. In data set [4] (setting [10]), this molecule displayed an ATG_PPARg_TRANS of 0. In data set [5] (setting [10]), this molecule showed an ATG_PXRE_CIS of 0. For the same molecule, the NCGC_PPARg_Agonist in data set [6] stood at 0.

As to `CNC(=O)Oc1cccc2ccccc12` [r52], the ATG_PXR_TRANS in data set [1] (setting [10]) amounted to 0. Moreover, the CHR_Rat_Liver_2_PreneoplasticLesion in [7] (setting [11]) is given as 6. Moreover, in data set [8] (setting [12]), the CHR_Rat_Liver_1_AnyLesion is listed as 6. The NVS_NR_hER in data set [3] is 0. In addition, in data set [9] (setting [13]), the CHR_Rat_Liver_3_NeoplasticLesion is on record as 6. The ATG_PXRE_CIS in data set [5] (setting [10]) was determined as 4.42.

In turn, `COc1cc(Cl)c(OC)cc1Cl` [r57] registered an ATG_PXR_TRANS in data set [1] (setting [10]) of 0. The NVS_NR_hPPARg in data set [2] is reported as 0. In [3], the NVS_NR_hER is 0. Besides, in [4] (setting [10]), the ATG_PPARg_TRANS amounted to 0. In data set [5] (setting [10]), this molecule gave an ATG_PXRE_CIS of 4.42. This molecule came in with an NCGC_PPARg_Agonist in [6] of 0.

Molecule `N#Cc1c(Cl)c(Cl)c(Cl)c(C#N)c1Cl` [r58] registered an ATG_PXR_TRANS in data set [1] (setting [10]) of 6.658. Further, the NVS_NR_hPPARg in [2] is 6.265. Also, in [3], the NVS_NR_hER is 0. Besides, the ATG_PPARg_TRANS in [4] (setting [10]) stood at 0. The ATG_PXRE_CIS in data set [5] (setting [10]) is 6.796. In data set [6], this molecule gave an NCGC_PPARg_Agonist of 0.

Consider `Cc1ccccc1CO[C@@H]1C[C@@]2(C(C)C)CC[C@]1(C)O2` [r64], for which the ATG_PXR_TRANS in data set [1] (setting [10]) is recorded as 5.18. In data set [7] (setting [11]), the CHR_Rat_Liver_2_PreneoplasticLesion is reported as 0. Besides, in data set [2], the NVS_NR_hPPARg worked out at 0. Also, in data set [8] (setting [12]), the CHR_Rat_Liver_1_AnyLesion was 6. The molecule further had an ATG_PPARg_TRANS in data set [4] (setting [10]) of 4.377. In addition, in data set [9] (setting [13]), the CHR_Rat_Liver_3_NeoplasticLesion is given as 0. In data set [5] (setting [10]), this molecule registered an ATG_PXRE_CIS of 5.201. Further, in data set [6], the NCGC_PPARg_Agonist is listed as 0.

In [1], `C#CCC1=C(C)[C@H](OC(=O)[C@H]2[C@H](C=C(C)C)C2(C)C)CC1=O` [r249] displayed an ATG_PXR_TRANS of 5.444. Moreover, the CHR_Rat_Liver_2_PreneoplasticLesion in data set [7] (rat, chronic study) is listed as 0. Also, the CHR_Rat_Liver_1_AnyLesion in data set [8] (rat, chronic study) is recorded as 6. The same molecule displayed an ATG_PPARg_TRANS in [4] of 4.357. Also, in data set [9] (rat, chronic study), the CHR_Rat_Liver_3_NeoplasticLesion was 0. This molecule came in with an ATG_PXRE_CIS in data set [5] of 5.523.

With `CCCN(CCC)c1c([N+](=O)[O-])cc(C(F)(F)F)c(N)c1[N+](=O)[O-]` [r252], in [1], the ATG_PXR_TRANS was 5.244. Also, the CHR_Rat_Liver_2_PreneoplasticLesion in data set [7] (rat, chronic study) is on record as 0. The CHR_Rat_Liver_1_AnyLesion in [8] (rat, chronic study) is given as 6. The CHR_Rat_Liver_3_NeoplasticLesion in [9] (rat, chronic study) is 0. Moreover, the ATG_PXRE_CIS in [5] turned out to be 5.585.
